Test results taken from patent US8314082B2, “Stilbene derivatives for ADP-ribosyl cyclase inhibitors” (Industrial Cooperation Foundation Chonbuk National …, priority 2006, dated 2012).
Read-outs that look alike come from different tables or passages of the source.

How the values were obtained:
Type in all cases: cell-based
[1] = system: OKT3 induced [Ca^2+]i increase in Jurkat T cells; assay: OKT3-mediated [Ca2+]i increase in Jurkat T cells; conditions: pretreatment, even at 10 mM; OKT3 5 mg/ml
Experimental: Changes in [Ca^2+]i in Jurkat T cells were determined as described above examples 1.

[2] = system: Ang II induced cADPR production in murine mesangial cells (MMCs); assay: Ang II-induced intracellular cADPR concentration in MMCs; conditions: for IC50: Mus musculus, Mesangial cell, cADPR production induced by 150 nM Ang II, 90 s, MMCs, read-out: IC50([CADPR]i, uM) (means ± SEM)
Experimental: [cADPR]i was measured using a cyclic enzymatic assay as described previously [Graeff et al., Biochem. J. (2002)361:379-84]. Aplysia californica ADPR-cyclase was purified from […] according to the method described [Lee et al., Cell Regul. (1991)2:203-9]. Briefly, MMCs were treated with 0.3 ml of 0.6 M perchloric acid under sonication after Ang II treatment. Precipitates were removed by centrifugation at 20,000×g for 10 min. Perchloric acid was removed by mixing the aqueous sample with a solution containing 3 volumes of 1,1,2-trichlorotrifluoroethane to 1 volume of tri-n-octlyamine. After centrifugation for 10 min at 1500×g, the aqueous layer was collected and neutralized with 20 mM sodium phosphate (pH 8). To remove all contaminating nucleotides, the samples were incubated with the following hydrolytic enzymes overnight at 37° C.: 0.44 unit/ml nucleotide pyrophosphatase, 12.5 units/ml alkaline phosphatase, 0.0625 unit/ml NADase, and 2.5 mM MgCl2 in 20 mM sodium phosphate buffer (pH 8.0). Enzymes were removed by filtration using Centricon-3 filters. To convert cADPR to NAD^+, the samples (0.1 ml/tube) were incubated with […] of a cycling reagent containing 0.3 mg/ml Aplysia ADPR-cyclase, 30 mM nicotinamide, and 100 mM sodium phosphate (pH 8) at room temperature for 30 min. The samples were further incubated with the cycling reagent (0.1 ml) containing 2% ethanol, […] alcohol dehydrogenase, 20 mM resazurin, 10 mg/ml diaphorase, 10 mM riboflavin 5′-phosphate, 10 mM nicotinamide, 0.1 mg/ml BSA, and 100 mM sodium phosphate (pH 8.0) for 2 h at room temperature. An increase in the resorufin fluorescence was measured at 544 nm excitation and 590 nm emission using a fluorescence plate reader (Molecular Devices Corp., Spectra-Max GEMINI). Various known concentrations of cADPR were also included in the cycling reaction to generate a standard curve. […] Production of cADPR as well as later sustained Ca^2+ signal in response to Ang II was inhibited with different efficacy by these small molecules (Table 1). […] The order of IC50 was 4,4′-DAHB>resveratrol>azobenzene=piceatannol>2,2′-DAHB.

[3] = system: Ang II induced [Ca^2+]i increase in murine mesangial cells (MMCs); assay: Ang II-mediated [Ca2+]i increase in MMCs; conditions: Mus musculus, Mesangial cell
Experimental: Changes in [Ca^2+]i in MMCs were determined as described previously [Kim et al., Exp. Mol. Med. (2006)38:535-45]. Briefly, MMCs cultured on confocal dishes for 48 h at a concentration of 10^4 cells/dish were washed with Hank's balanced salt solution (HBSS) (2 mM CaCl2, 145 mM NaCl, 5 mM KCl, 1 mM MgCl2, 5 mM D-glucose, and 20 mM HEPES, pH 7.3) and then loaded with […] Fluo 3-AM (Molecular Probe, Eugene, Oreg.). Changes in Ca^2+ fluorescence were determined at 488 nm/530 nm (excitation/emission) by air-cooled argon laser system. [Ca^2+]i was calculated using a Kd of 325 nM for Fluo 3-AM by the method of Tsien et al. (1982).

[4] = system: OKT3 induced cADPR production in Jurkat T cells; assay: OKT3-induced [cADPR]i in Jurkat T cells; conditions: pretreatment
Experimental: [cADPR]i was measured using a cyclic enzymatic assay as described previously [Graeff et al., Biochem. J. (2002)361:379-84]. Aplysia californica ADPR-cyclase was purified from […] according to the method described [Lee et al., Cell Regul. (1991)2:203-9]. Briefly, MMCs were treated with 0.3 ml of 0.6 M perchloric acid under sonication after Ang II treatment. Precipitates were removed by centrifugation at 20,000×g for 10 min. […] After centrifugation for 10 min at 1500×g, the aqueous layer was collected and neutralized with 20 mM sodium phosphate (pH 8). To remove all contaminating nucleotides, the samples were incubated with the following hydrolytic enzymes overnight at 37° C.: 0.44 unit/ml nucleotide pyrophosphatase, 12.5 units/ml alkaline phosphatase, 0.0625 unit/ml NADase, and 2.5 mM MgCl2 in 20 mM sodium phosphate buffer (pH 8.0). Enzymes were removed by filtration using Centricon-3 filters. […] An increase in the resorufin fluorescence was measured at 544 nm excitation and 590 nm emission using a fluorescence plate reader (Molecular Devices Corp., Spectra-Max GEMINI). […] Measurement of [cADPR]i in Jurkat T cells were determined as described above examples 5.

[5] = later sustained Ca2+ signal induced by 150 nM Ang II, 300 s, read-out: IC50([Ca^2+]i, uM) (means ± SEM)

SMILES | effect on OKT3-mediated Ca2+ rise [1] | IC50 [2] [µM] | IC50 [3, 5] [µM] | effect on OKT3-mediated [cADPR]i [4] | concentration at which cADPR production stimulated by Ang II is inhibited ([2]; MMC) [nM] | IC50 ([3]; Ang II, pretreatment, read-out: IC50 for block of the sustained Ca2+ signal) [µM]
Oc1ccccc1/N=N/c1ccccc1O [2,2′-DHAB, 2,2′-Dihydroxyazobenzene] | did not show any effects | 16.5 ± 2.5 | 15 ± 1.5 | didn't inhibited |  | 
Oc1ccc(N=Nc2ccc(O)cc2)cc1 [4,4′-DHAB, 4,4′-Dihydroxyazobenzene] | did not show any effects | 0.0025 ± 0.0003 | 0.0025 ± 0.0002 | didn't inhibited | 5 | ~0.0025
